The structures appear in SMILES notation. The source made the active and inactive calls. No rule for the calls is given here.

The data set relates to CCRIS mutagenicity, Ames/micronucleus/aberration tests. Briefly: CCRIS mutagenicity studies.

`CCCCON=O`: the mutagenic call is, setting by setting: (Test System: AMES SALMONELLA TYPHIMURIUM, Strain/Indicator: TA98, Metabolic Activation: HAMSTER, LIVER, S-9, AROCLOR 1254, Method: STANDARD PLATE) “inactive; negative”; (Test System: AMES SALMONELLA TYPHIMURIUM, Strain/Indicator: TA98, Metabolic Activation: NONE, Method: STANDARD PLATE) “inactive; negative”; (Test System: AMES SALMONELLA TYPHIMURIUM, Strain/Indicator: TA98, Metabolic Activation: RAT, LIVER, S-9, AROCLOR 1254, Method: STANDARD PLATE) “inactive; negative”; (Test System: AMES SALMONELLA TYPHIMURIUM, Strain/Indicator: TA98, Metabolic Activation: S-9, Method: STANDARD PLATE) “active; positive”; (Test System: AMES SALMONELLA TYPHIMURIUM, Strain/Indicator: TA100, Metabolic Activation: HAMSTER, LIVER, S-9, AROCLOR 1254, Method: STANDARD PLATE) “inactive; negative”; (Test System: AMES SALMONELLA TYPHIMURIUM, Strain/Indicator: TA100, Metabolic Activation: NONE, Method: STANDARD PLATE) “active; positive”. The mutagenic call was “inactive; negative” (Test System: AMES SALMONELLA TYPHIMURIUM, Strain/Indicator: TA100, Metabolic Activation: RAT, LIVER, S-9, AROCLOR 1254, Method: STANDARD PLATE); “active; positive” (Test System: AMES SALMONELLA TYPHIMURIUM, Strain/Indicator: TA100, Metabolic Activation: S-9, Method: STANDARD PLATE); “active; positive” (Test System: AMES SALMONELLA TYPHIMURIUM, Strain/Indicator: TA1535, Metabolic Activation: HAMSTER, LIVER, S-9, AROCLOR 1254, Method: STANDARD PLATE); “active; positive” (Test System: AMES SALMONELLA TYPHIMURIUM, Strain/Indicator: TA1535, Metabolic Activation: NONE, Method: STANDARD PLATE); “active; positive” (Test System: AMES SALMONELLA TYPHIMURIUM, Strain/Indicator: TA1535, Metabolic Activation: RAT, LIVER, S-9, AROCLOR 1254, Method: STANDARD PLATE); “inactive; negative” (Test System: AMES SALMONELLA TYPHIMURIUM, Strain/Indicator: TA1537, Metabolic Activation: HAMSTER, LIVER, S-9, AROCLOR 1254, Method: STANDARD PLATE). Further, the mutagenic call runs as follows: (Test System: AMES SALMONELLA TYPHIMURIUM, Strain/Indicator: TA1537, Metabolic Activation: NONE, Method: STANDARD PLATE) “inactive; negative”; (Test System: AMES SALMONELLA TYPHIMURIUM, Strain/Indicator: TA1537, Metabolic Activation: RAT, LIVER, S-9, AROCLOR 1254, Method: STANDARD PLATE) “inactive; negative”; (Test System: MOUSE LYMPHOMA, Strain/Indicator: L5178Y (TK+/TK-), Metabolic Activation: NONE, Method: SUSPENSION/PLATE) “active; positive. reevaluation of results: positive”; (Test System: MOUSE LYMPHOMA, Strain/Indicator: L5178Y (TK+/TK-), Metabolic Activation: RAT, LIVER, S-9, AROCLOR 1254, Method: SUSPENSION/PLATE) “active; positive. reevaluation of results: positive”.

The record behind these values is PubChem BioAssay AID1259407 (Chemical Carcinogenesis Research Information System (CCRIS), 2018).
